Entries after “also recorded” stand apart in the source; their conditions may differ.
Columns and labels:
[1] = test system: OA synovial fibroblast cells; assay: Intracellular H2O2 production in OA synovial fibroblast cells; type: cell-based, human
Protocol: (§1) 1.1 Patients. Synovial tissue samples were obtained from 10 patients (8 women, 2 man; mean age 70 +/−6 years) with osteoarthritis (OA) of the knee at the time of total knee joint replacement surgery. All the subjects provided their informed consent.
(§2) 1.2 Isolation and culture of synovial cells. Synovium biopsies were digested is with collagenase from Clostridium histolyticum, Type IA (1 mg/ml) (Sigma-Aldrich, Saint-Louis, USA) and 0.25% trypsin (Sigma Aldrich, Saint Louis, USA) with 0.68 mM EDTA in Tris buffer 0.1M, pH 7.4 in complete medium (CM) (DMEM (Dulbecco's Modified Eagle's Medium) Low Glucose supplemented with 10 mM HEPES, 100 U/ml penicillin, 100 μg/ml streptomycin, 2 mM glutamine and 10% fetal calf serum (Lonza, Verviers, Belgium)) for 1 hour at 37° C. The cells suspensions were passed through a 70-μm filter to remove any undigested tissue. The filtered cells suspensions were then collected by centrifugation at 800 g and were cultured in culture flasks. After 24 hours, medium was changed to eliminate non adherent cells. Synovial fibroblasts cells (SFC) were used after three passages.
(§3) 1.3 Treatment of synovial fibroblast cells. Cells were seeded into a six-well plate at the density of 2×10^5 cells/well in 2 ml of CM. When the cells reached confluence, the CM was replaced with 1% serum medium for 24 h to keep the cells quiescent. Cells were incubated for 24 hours with or without peptides Coll2-1 (^108HRGYPGLDG^116; 0.45 and 4.5 nmol) or Coll2-1NO2 (^108HRGYPGLDG-NO2^116; 4 and 40 pmol) at a range of concentrations found in the blood of osteoarthritic patients.
1.5 Intracellular H2O2 and O2^∘^− productions. Levels of intracellular superoxide anion (O2^∘^−) and hydrogen peroxide (H2O2) were assessed spectrofluorimetrically by oxidation of specific probes: dihydroethidium (Molecular Probes, Leiden, The Netherlands) and H2DCFH-DA (Molecular Probes, Leiden, The Netherlands) respectively. Synovial cells seeded on 96-well plates (8×10^3 cells per well) were washed once with phosphate-buffered saline and then incubated with 50 μL of phosphate-buffered saline containing either 250 μM dihydroethidium or 200 μM H2DCFH-DA. The fluorescence intensity was measured every hour for 6 hours. The levels of O2^∘^− or H2O2 are expressed in arbitrary unit/living cell. The numbers of adherent cells were measured by crystal violet assay.

[2] = test system: OA synovial fibroblast cells; assay: Intracellular GSH assay in OA synovial fibroblast cells; type: cell-based, human; details: Coll2-1 at 0.45 and 4.5 nmol, 24 hours
Protocol: as §1
as §2, with “passages. […]” for “passages.”
1.6 GSH assay. Levels of intracellular GSH were assessed by monoclorobimane staining. […] The fluorescence intensities were measured at […] using excitation and emission wavelengths of 380 and 485 nm, respectively. The intracellular GSH level was expressed as arbitrary units of fluorescence intensity.

[3] = test system: OA synovial fibroblast cells; assay: NO production in OA synovial fibroblast cells; type: cell-based, human; details: Coll2-1 (0.45 and 4.5 nmol) or Coll2-1NO2 (4 and 40 pmol), 24 hours
Protocol: as §1
as §2, with “passages. […]” for “passages.”
1.7 NO production. Nitric oxide production was evaluated using a DAF2-DA fluorescent probe (Molecular Probes, Leiden, The Netherlands). […] The fluorescence intensity was measured every hour for 6 hours. […] The numbers of adherent cells were measured by cristal violet assay.

TSP1 = TSP1 mRNA expression by Real Time PCR in OA synovial fibroblast cells; type: cell-based, human; details: increasing concentrations: Coll2-1 (0.45 and 4.5 nmol) or Coll2-1NO2 (4 and 40 pmol), 24 hours
Protocol: as §3
1.4 RNA extraction and Real Time Reverse Transcriptase-Polymerase Chain Reaction (RT PCR). Total RNA were extracted using the RNeasy Mini Kit (Qiagen, Netherlands) and were reverse transcribed with SuperScript III Reverse Transcriptase (Invitrogen, Belgium) according to the manufacturer's instructions. The cDNAs were quantified by real-time quantitative PCR using the Rotor Gene instrument (Qiagen, Venlo, Netherlands) and the SYBR Premix Ex Taq kit (Takara, Verviers, Belgium). The level of gene expression was determined by interpolation with a standard curve. To standardize mRNA levels, HPRT, a house keeping gene, was amplified as an internal control. The oligonucleotide primers sequences were as follow: HPRT forward, 5′-[…]-3′ (SEQ ID NO: 2); HPRT reverse, 5′-TGCCTGACCAAGGAAAGC-3′ (SEQ ID NO: 3); TSP-1 forward, 5′-CAGACCGCATTGGAGATAC-3′ (SEQ ID NO: 4); TSP-1 reverse, 5′-[…]-3′ (SEQ ID NO: 5); VEGF forward, 5′-TGCCTTGCTGCTCTAC-3′ (SEQ ID NO: 6); VEGF reverse, 5′-CACACAGGATGGCTTGAA-3′ (SEQ ID NO: 7); IL-6 forward, 5′-AAACAAATTCGGTACATCCTCG-3′ (SEQ ID NO: 8); IL-6 reverse, 5′-CCA GGC AAG TCT CCT CAT-3′ (SEQ ID NO: 9); IL-8 forward, 5′-GGAACCATCTCACTGTGTGTAA-3′ (SEQ ID NO: 10); IL-8 reverse, 5′-TGGAAAGGTTTGGAGTATGTCT-3′ (SEQ ID NO: 11).

VEGF = VEGF mRNA expression by Real Time PCR in OA synovial fibroblast cells; type: cell-based, human; details: increasing concentrations: Coll2-1 (0.45 and 4.5 nmol) or Coll2-1NO2 (4 and 40 pmol), 24 hours
Protocol: as §3
1.4 RNA extraction and Real Time Reverse Transcriptase-Polymerase Chain Reaction (RT PCR). Total RNA were extracted using the RNeasy Mini Kit (Qiagen, Netherlands) and were reverse transcribed with SuperScript III Reverse Transcriptase (Invitrogen, Belgium) according to the manufacturer's instructions. The cDNAs were quantified by real-time quantitative PCR using the Rotor Gene instrument (Qiagen, Venlo, Netherlands) and the SYBR Premix Ex Taq kit (Takara, Verviers, Belgium). The level of gene expression was determined by interpolation with a standard curve. To standardize mRNA levels, HPRT, a house keeping gene, was amplified as an internal control. […]

NF-κB = NF-κB activation, Western blotting of phospho-p65 and phospho-IκBα; type: cell-based; details: in the presence of Coll2-1
Protocol: Western blotting. Cells were collected at 4° C. and lysed on ice in 50 μl of buffer (25 mM Hepes, 150 mM NaCl, 0.5% Triton X-100, 10% glycerol, and 1 mM dithiothreitol) containing protease and phosphatase inhibitors. After incubation at 4° C. for 30 minutes, lysates were then centrifugated at 14,000 g for 30 minutes at 4° C. to remove insoluble debris. Protein concentrations were determined using BCA assay. Total protein extracts (10 μg) were fractioned by electrophoresis on a polyacrylamide gel (10%) and transferred onto a PVDF membrane. Membrane were blocked for 1 h in TBS-Tween containing 2% bovine serum albumin (phosphor-NF-κB p65 and phospho-IκBα). Membranes were then incubated overnight at 4° C. with primary antibodies. Anti-rabbit phospho-NF-κB p65 (1:1000 dilution), anti-rabbit phospho-IκBα (1:1000 dilution) were used. Horse-radish peroxidase (HRP)-linked anti-rabbit IgG antibody (1:2000 dilution) was used as secondary antibody.

HRGYPGLDG [Coll2-1]
intracellular production of H2O2 ([1]; Coll2-1 at 4.5 nmol, 24 hours): significantly increased | H2O2 production ([1]; increasing doses of Coll2-1 peptide): increase | intracellular level of GSH [2]: significant decrease | production of NO (nitric oxide) [3]: decreased significantly; also recorded: decrease | TSP1 expression (TSP1): decrease | VEGF expression (VEGF): tended to increase | IκBα degradation (NF-κB): induced | phosphorylation of p65 NF-κB subunit (NF-κB): observed the phosphorylation
